Molecular target: Transcription factor Sp1 (Homo sapiens, UniProt P08047)
Test: Inhibition of Sp1 (unknown origin) by luciferase reporter gene assay

Sequence of Transcription factor Sp1 (P08047 whole entry): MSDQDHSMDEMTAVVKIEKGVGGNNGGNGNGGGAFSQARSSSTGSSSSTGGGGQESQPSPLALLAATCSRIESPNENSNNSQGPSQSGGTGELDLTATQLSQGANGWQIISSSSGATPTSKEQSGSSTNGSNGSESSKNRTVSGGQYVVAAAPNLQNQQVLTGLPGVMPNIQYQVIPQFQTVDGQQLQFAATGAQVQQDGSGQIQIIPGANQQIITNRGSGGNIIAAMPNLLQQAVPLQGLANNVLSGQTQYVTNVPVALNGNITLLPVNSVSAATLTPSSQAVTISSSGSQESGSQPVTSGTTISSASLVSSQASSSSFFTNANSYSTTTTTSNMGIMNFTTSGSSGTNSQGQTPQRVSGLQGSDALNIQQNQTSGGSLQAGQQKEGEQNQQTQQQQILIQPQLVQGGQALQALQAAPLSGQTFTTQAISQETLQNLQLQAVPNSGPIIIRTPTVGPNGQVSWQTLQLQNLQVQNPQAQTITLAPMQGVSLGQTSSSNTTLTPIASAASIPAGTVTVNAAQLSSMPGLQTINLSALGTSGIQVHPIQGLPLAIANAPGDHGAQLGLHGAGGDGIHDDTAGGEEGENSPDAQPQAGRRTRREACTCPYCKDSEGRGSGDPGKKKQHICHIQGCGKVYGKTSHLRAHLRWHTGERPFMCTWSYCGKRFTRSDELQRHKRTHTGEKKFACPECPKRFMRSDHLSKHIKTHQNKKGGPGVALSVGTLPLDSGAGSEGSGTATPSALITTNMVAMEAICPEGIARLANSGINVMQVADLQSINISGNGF

Row | IC50 | Compound
1 | 30.2 µM | C=C1C(=O)O[C@H]2[C@H]1CC/C(C)=C/CC[C@@]1(C)O[C@@H]21 [PARTHENOLIDE]
2 | 57.7 µM | O=C(N/N=C/c1ccccc1)c1ccc(F)cc1

— BindingDB's records for doi:10.1007/s00044-011-9882-z (n/a, 2012)
